From the supplement of paper PMC8837787

Tested on: Saccharomyces cerevisiae ABC16-Green Monster
Assay: growth inhibition at single dose (up to 150 µM), below the 70% cut-off for dose-response; higher = more potent
Settings: 18 h; 30 °C; YPD
In short: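 Drug-sensitive S. cerevisiae ABC16-Green Monster cells were grown overnight in YPD at 30 °C and diluted to log phase (OD600 0.1–0.2). Each library compound was added at one dose of 150 µM to 200 µl culture per well in 96-well plates, in biological duplicates, with untreated cultures alongside. OD600 was read at 0 h and after 18 h at 30 °C. The value is percent growth inhibition; compounds below 70% in both replicates were not taken to dose-response.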

For `CCOc1ccc(-c2nc(C(=O)Nc3ncccc3O)cs2)cc1`, the “growth inhibition at single dose” value was less than 70%.
`CCSc1nccc(-c2ccc3c(c2)CCC(C)(C)O3)n1` was tested, and the “growth inhibition at single dose” value was less than 70%.
With `OC(CNC1CCCC1)Cn1c2ccccc2c2ccccc21` (centres undefined) the “growth inhibition at single dose” value was less than 70%.
For `CCn1nc(C(=O)NCc2ccc(OC)cc2)c2c1CCN(C(=O)c1cc(C)n[nH]1)C2`, the “growth inhibition at single dose” value was less than 70%.
With `Cc1ccc(-c2cc3c(SCC(=O)Nc4cc(C(F)(F)F)ccc4Cl)nccn3n2)cc1` the “growth inhibition at single dose” value was less than 70%.
For `CC(Oc1ccc2ccc(=O)oc2c1)C(=O)N1CCc2ccccc21` (centres undefined), the “growth inhibition at single dose” value was less than 70%.
In the case of `FC(F)(F)c1nc(NCCNc2ccccn2)c2ccccc2n1`, the “growth inhibition at single dose” value is reported as less than 70%.
With `COc1cc(CN2CCC3(C=Cc4ccccc43)CC2)cc2c1OCO2` the “growth inhibition at single dose” value was less than 70%.
In the case of `Cc1cc(C(=O)Cn2nnc3ccccc3c2=O)c(C)n1-c1ccccc1`, the “growth inhibition at single dose” value is reported as less than 70%.
With `CNc1nnc(Sc2ncnc3ccsc23)s1` the “growth inhibition at single dose” value was less than 70%.
With `COc1cccc(NC(=O)Cn2c(C)c(C#N)c3ccccc32)c1` the “growth inhibition at single dose” value was less than 70%.
For `CCc1c(C)c(=N)c2ccccc2n1C`, the “growth inhibition at single dose” value was less than 70%.
`COCCN1COc2c(cc(Cl)c3cccnc23)C1` was tested, and the “growth inhibition at single dose” value was less than 70%.
For `CS(=O)(=O)N1CCC(CCn2nc(Cc3cccc4ccccc34)c3c(N)ncnc32)CC1`, the “growth inhibition at single dose” value was less than 70%.
For `O=S(=O)(c1ccc2ccccc2c1)N1CCCC1c1nnc2ccccn12` (centres undefined), the “growth inhibition at single dose” value was less than 70%.
`CCOc1cc(Cl)c(C(C)NC(=O)c2ccccc2)cc1OCC` (centres undefined) was tested, and the “growth inhibition at single dose” value was less than 70%.
In the case of `C[C@]12CC[C@H](O)C[C@H]1CCC1C2[C@H](O)C[C@]2(C)[C@@H](C3=CC(=O)OC3)CC[C@]12O` (some centres undefined), the “growth inhibition at single dose” value is reported as less than 70%.
For `CCCOCc1cc(CN2CCN(c3cccc(Cl)c3)CC2)c(O)c2ncccc12`, the “growth inhibition at single dose” value was less than 70%.
`CCn1c(O)c(C2NCCc3c2[nH]c2ccc(OC)cc32)c(=O)[nH]c1=O` (centres undefined) was tested, and the “growth inhibition at single dose” value was less than 70%.
For `Cc1cc(C(=O)Nc2cnn(Cc3ccc(Cl)cc3Cl)c2)no1`, the “growth inhibition at single dose” value was less than 70%.
`COc1ccc(C=C2SC(Nc3ccc(F)cc3)=NC2=O)c(OC)c1` was tested, and the “growth inhibition at single dose” value was less than 70%.
With `FC(F)(F)c1cc(NCCc2ccccc2)nc(-c2ccccn2)n1` the “growth inhibition at single dose” value was less than 70%.
For `N#C/C(C(=O)c1ccc([N+](=O)[O-])s1)=C1\Nc2ccccc2S1`, the “growth inhibition at single dose” value was less than 70%.
With `COc1ccc(CN2CCN(C(=O)c3ccc(-n4cccn4)cc3)CC2)cc1F` the “growth inhibition at single dose” value was less than 70%.
For `COc1cc(NS(=O)(=O)c2ccc(C)cc2)c(OC)cc1Cl`, the “growth inhibition at single dose” value was less than 70%.
For `Cc1ccc(-c2cc3nc4c(c(O)n3n2)CCCC4)cc1`, the “growth inhibition at single dose” value was less than 70%.
`Cc1ccc2[nH]c3c(NCCN(C)C)ncnc3c2c1` was tested, and the “growth inhibition at single dose” value was less than 70%.
`CC(C)CN(C(=O)c1ccc(N2CCCC2)c([N+](=O)[O-])c1)c1nc2ccccc2s1` was tested, and the “growth inhibition at single dose” value was less than 70%.
With `O=S(=O)(c1ccc(Cl)c(N=C2NN=C(c3c[nH]c4ccccc34)CS2)c1)N1CCOCC1` the “growth inhibition at single dose” value was less than 70%.
`C[n+]1c2ccccc2nc2ccc(NCCO)cc21` was tested, and the “growth inhibition at single dose” value was less than 70%.
In the case of `CN(C)c1ccc(C(=O)Nc2cnc3ccccc3c2)cc1`, the “growth inhibition at single dose” value is reported as less than 70%.
`Cc1ccc(C)c(Cn2c(N3CCC(C(=O)NCc4cccs4)CC3)nc3ccccc32)c1` was tested, and the “growth inhibition at single dose” value was less than 70%.
For `O=C(NC1CC1)c1ccc(CN(C2CC2)S(=O)(=O)c2ccccc2F)cc1`, the “growth inhibition at single dose” value was less than 70%.
`CCOc1c(Br)cc(C2C(C(=O)OC)=CN(C)C=C2C(=O)OC)cc1OC` was tested, and the “growth inhibition at single dose” value was less than 70%.
For `CC(C)c1ccc(CNCC(O)c2ccccc2)cc1` (centres undefined), the “growth inhibition at single dose” value was less than 70%.
For `Cc1ccc(OCCCCCCNCCO)c(C)c1`, the “growth inhibition at single dose” value was less than 70%.
For `CCOc1ccc(CN(C)CC(=O)NCCc2ccc(S(N)(=O)=O)cc2)cc1`, the “growth inhibition at single dose” value was less than 70%.
In the case of `Cc1cc(Nc2ccc3ccccc3c2)n2ncnc2n1`, the “growth inhibition at single dose” value is reported as less than 70%.
`O=C(NCCN1CCCC1)c1cc(NCCCCN2CCC(F)(F)CC2)nc2ccc(Cl)cc12` was tested, and the “growth inhibition at single dose” value was less than 70%.
